# Results: US4751215A, “Process for increasing the sexual activity of birds and useful domestic mammals and for preparing spermatozoa suitable to their propagation” (INNOFINANCE Altalanos Innovacios Penzintezet, priority 1985, dated 1988)
# How the values were obtained:
# Assay type in all cases: in vivo
# male turkey = test: Effect of interval between three intramuscular injections on sperm production of male turkey (Table 2); conditions: three i.m. injections, 1 μg/kg
# Source text: In Table 2, the influence on the sperm production of the interval kept between the consecutive treatments is shown on male turkeys.
# testosterone level = test: Testosterone level of treated male turkeys (Table 3); conditions: Treated (n = 15)
# Description: (§1) 0.5 μg/kg of D-Phe^6 -GnRH analogue was intramuscularly administered to sexually mature male turkeys every 2 days, altogether 3 times. On the 20th day following treatment, the sperm production reached an increase of 44% and remained at a higher level, as compared to the control, for about 1 month (FIG. 4).
# (§2) One month and half after the first treatment, the same animals were similarly treated with 0.5 μg/kg of (Asp-α-diethylamide)^6,desGly^10 -GnRH ethylamide analogue every 2 days, altogether 3 times.
# The rise of the LH level of the blood was followed by an increase in the testosterone level (Table 3).
# male turkeys [1] = test: Effect of gonadoliberin analogues on the sperm production of male turkeys (Table 5)
# Source text: In a further experiment, the sperm production of male turkeys was raised by administering the following four compounds: […]
# male turkeys [2] = test: Permanent increase in sperm production of male turkeys bred on a large scale (Example 1, FIG. 4); conditions: 0.5 μg/kg i.m. every 2 days, 3 times
# Description: as §1, §2
# [3] = system: blood plasma testosterone level; test: Effect of various doses on blood plasma testosterone level of domestic cock (Table 1)
# Source text: In Table 1, the relation of the doses of the compounds of general formula (I) to the blood plasma testosterone level of the treated animals is illustrated in case of domestic cocks.
# bull = test: Enhancement of the sexual activity of a bull; conditions: 300 μg each, 3 times
# Description: A 2-year old bull of 1010 kg weight, of breeding condition and correspondingly having a good muscular system, good leg construction and a definitely male sexual character was set to breeding in 1985. On October 16 and 23 as well as on Nov. 1, 1985 test coverings were carried out on a rutting female cattle and on a phantom bull. […] Diagnosis stated by the veterinarian specialist: importentia coeundi. The bull was treated on November 29 as well as on Dec. 2 and 4, 1986 altogether 3 times with 300 μg each of D-[…] -GnRH analogue. On Dec. […] 7, 1986. On Jan. 21, 1986 the bull sprung onto a cow being after rutting. The sexual potency of the animal was unobjectionable even after 5 weeks following the treatment.
smiles,measurement,setting,value
"CC(C)C[C@H](NC(=O)[C@@H](Cc1ccccc1)NC(=O)[C@H](Cc1ccc(O)cc1)NC(=O)[C@H](CO)NC(=O)[C@H](Cc1c[nH]c2ccccc12)NC(=O)[C@H](Cc1c[nH]cn1)NC(=O)[C@@H]1CCC(=O)N1)C(=O)N[C@@H](CCCNC(=N)N)C(=O)N1CCC[C@H]1C(=O)NCC(N)=O [Compound ""A"", D-Phe^6 -GnRH]",Sperm volume,"male turkey; interval between treatments 24 hour, on day 0",0.18 (0.05) ml
same,Sperm volume,"male turkey; interval between treatments 24 hour, on the 20th day",0.21 (0.10) ml
same,Sperm volume,"male turkey; interval between treatments 48 hour, on day 0",0.19 (0.07) ml
same,Sperm volume,"male turkey; interval between treatments 48 hour, on the 20th day",0.35 (0.12) ml
same,Sperm volume,"male turkey; interval between treatments 72 hour, on day 0",0.16 (0.08) ml
same,Sperm volume,"male turkey; interval between treatments 72 hour, on the 20th day",0.25 (0.11) ml
same,Sperm volume,"male turkey; interval between treatments 144 hour, on day 0",0.21 (0.07) ml
same,Sperm volume,"male turkey; interval between treatments 144 hour, on the 20th day",0.24 (0.09) ml
same,Testosterone,testosterone level; sampling May 2,2.43 ± 1.22 ng/mL
same,Testosterone,testosterone level; sampling May 23,4.06 ± 1.62 ng/mL
same,Sperm production,male turkeys [1]; after 30 days,0.34 ml/animal
same,Sperm production,male turkeys [1]; after 60 days,0.39 ml/animal
same,Sperm production,male turkeys [1]; at the beginning of the experiment,0.27 ml/animal
same,time sperm production remained at a higher level as compared to the control,male turkeys [2],about 1 month
same,increase of sperm production,male turkeys [2]; on the 20th day following treatment,44%
same,Testosterone level of the blood plasma,"[3]; dose 0.01 μg/kg, after 0 minutes",1.7 (0.7) ng/ml
same,Testosterone level of the blood plasma,"[3]; dose 0.01 μg/kg, after 30 minutes",1.6 (1.3) ng/ml
same,Testosterone level of the blood plasma,"[3]; dose 0.01 μg/kg, after 60 minutes",1.5 (1.0) ng/ml
same,Testosterone level of the blood plasma,"[3]; dose 0.01 μg/kg, after 120 minutes",1.4 (0.6) ng/ml
same,Testosterone level of the blood plasma,"[3]; dose 0.05 μg/kg, after 0 minutes",1.4 (0.7) ng/ml
same,Testosterone level of the blood plasma,"[3]; dose 0.05 μg/kg, after 30 minutes",1.7 (1.2) ng/ml
same,Testosterone level of the blood plasma,"[3]; dose 0.05 μg/kg, after 60 minutes",1.5 (1.2) ng/ml
same,Testosterone level of the blood plasma,"[3]; dose 0.05 μg/kg, after 120 minutes",1.9 (0.8) ng/ml
same,Testosterone level of the blood plasma,"[3]; dose 0.1 μg/kg, after 0 minutes",1.0 (0.2) ng/ml
same,Testosterone level of the blood plasma,"[3]; dose 0.1 μg/kg, after 30 minutes",3.4 (1.9) ng/ml
same,Testosterone level of the blood plasma,"[3]; dose 0.1 μg/kg, after 60 minutes",2.7 (1.1) ng/ml
same,Testosterone level of the blood plasma,"[3]; dose 0.1 μg/kg, after 120 minutes",2.0 (0.8) ng/ml
same,Testosterone level of the blood plasma,"[3]; dose 0.3 μg/kg, after 0 minutes",2.1 (0.7) ng/ml
same,Testosterone level of the blood plasma,"[3]; dose 0.3 μg/kg, after 30 minutes",3.9 (0.6) ng/ml
same,Testosterone level of the blood plasma,"[3]; dose 0.3 μg/kg, after 60 minutes",4.2 (1.2) ng/ml
same,Testosterone level of the blood plasma,"[3]; dose 0.3 μg/kg, after 120 minutes",2.6 (0.5) ng/ml
same,Testosterone level of the blood plasma,"[3]; dose 0.5 μg/kg, after 0 minutes",2.5 (1.0) ng/ml
same,Testosterone level of the blood plasma,"[3]; dose 0.5 μg/kg, after 30 minutes",6.5 (0.5) ng/ml
same,Testosterone level of the blood plasma,"[3]; dose 0.5 μg/kg, after 60 minutes",5.3 (1.2) ng/ml
same,Testosterone level of the blood plasma,"[3]; dose 0.5 μg/kg, after 120 minutes",3.9 (1.5) ng/ml
same,Testosterone level of the blood plasma,"[3]; dose 1.0 μg/kg, after 0 minutes",1.5 (0.8) ng/ml
same,Testosterone level of the blood plasma,"[3]; dose 1.0 μg/kg, after 30 minutes",7.2 (3.5) ng/ml
same,Testosterone level of the blood plasma,"[3]; dose 1.0 μg/kg, after 60 minutes",7.1 (3.6) ng/ml
same,Testosterone level of the blood plasma,"[3]; dose 1.0 μg/kg, after 120 minutes",3.7 (1.2) ng/ml
same,Testosterone level of the blood plasma,"[3]; dose 3.0 μg/kg, after 0 minutes",1.9 (0.3) ng/ml
same,Testosterone level of the blood plasma,"[3]; dose 3.0 μg/kg, after 30 minutes",6.2 (2.4) ng/ml
same,Testosterone level of the blood plasma,"[3]; dose 3.0 μg/kg, after 60 minutes",5.2 (1.7) ng/ml
same,Testosterone level of the blood plasma,"[3]; dose 3.0 μg/kg, after 120 minutes",3.0 (1.1) ng/ml
same,Testosterone level of the blood plasma,"[3]; dose 5.0 μg/kg, after 0 minutes",2.1 (1.2) ng/ml
same,Testosterone level of the blood plasma,"[3]; dose 5.0 μg/kg, after 30 minutes",3.6 (2.4) ng/ml
same,Testosterone level of the blood plasma,"[3]; dose 5.0 μg/kg, after 60 minutes",2.7 (0.6) ng/ml
same,Testosterone level of the blood plasma,"[3]; dose 5.0 μg/kg, after 120 minutes",1.7 (0.9) ng/ml
same,sexual potency of the animal,bull; 5 weeks following the treatment,unobjectionable
same,covering behaviour after treatment,"bull; bull with impotentia coeundi, Dec. 6, 1985",covered two times a rutting cow
